Results reported in patent EP3156398A1, “AGONISTS OF THE CHEMOKINE RECEPTOR CXCR3” (Friedrich-Alexander-Universität Erlangen-Nürnberg, priority 2015, dated 2017).
Several values for one entry are separate records, joined by “and”; a condition that tells them apart may be missing. Equal entries are not always repeated.

Key:
[1] = test system: activated T-cells; conditions: cited from earlier work
[2] = biological target: T1, CXCR3-PK2 (Homo sapiens, UniProt P49682); test: β-arrestin 2 recruitment assay (PathHunter, DiscoveRx), CXCR3-PK2 construct; assay type: cell-based; conditions: CXCR3-PK2; for Emax: % of CXCL11 mediated effect, read-out: CXCR3-PK2 efficacy (%) (converted); for CXCR3-PK2 pEC50 ± SEM: HEK293-T cells, PathHunter
T1 construct: expressed in transfected cells
T1 sequence (P49682 1-368): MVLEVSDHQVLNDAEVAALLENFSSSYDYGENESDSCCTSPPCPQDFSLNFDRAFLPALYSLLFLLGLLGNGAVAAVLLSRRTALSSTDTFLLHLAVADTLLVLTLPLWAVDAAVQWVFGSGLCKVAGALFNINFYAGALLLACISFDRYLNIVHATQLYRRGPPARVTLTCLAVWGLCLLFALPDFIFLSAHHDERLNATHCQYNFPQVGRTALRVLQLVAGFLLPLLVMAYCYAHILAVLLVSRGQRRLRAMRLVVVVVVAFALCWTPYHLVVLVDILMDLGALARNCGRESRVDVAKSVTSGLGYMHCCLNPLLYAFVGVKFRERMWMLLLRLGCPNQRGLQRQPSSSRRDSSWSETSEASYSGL
Procedure: (§1) β-arrestin 2 recruitment assay: The measurement of β-arrestin recruitment was performed utilizing the PathHunter assay purchased from DiscoveRx (DiscoveRx, Birmingham, U.K.) according to the manufacturer's protocol. HEK293 cells stably expressing β-gal enzyme acceptor were transiently transfected with the ProLink (PK1) tagged wildtype CXCR3 receptor using the TransIT-293 transfection reagent from Mirus (purchased from MoBiTec, Goettingen, Germany). The assay was carried out in 384-well plates containing 2000 cells in 20 µL. After incubation at 37°C (5% CO2, 95% relative humidity) overnight, various concentrations of test compounds or CXCL11 (prepared in PBS, pH 7.4, containing 0.20% BSA) were added and the incubation continued for 4 h. Detection mix was then added and incubated for further 60 min at room temperature. Chemiluminescence was determined with a microplate reader Clariostar (BMG labtech, Ortenberg, Germany).
(§2) The ability of the novel ligands according to the present invention to induce CXCR3-mediated β-arrestin 2 recruitment was investigated in the assay system PathHunter (DiscoveRx), which detects the recruitment of β-amestin 2 to the activated receptor using β-galactosidase (β-gal) enzyme fragment complementation. The inventors used two different ProLink tags, ProLink1 (PK1) and ProLink2 (PK2), of which PK2 has higher affinity for the enzyme acceptor to detect weak protein-protein interactions. The CXCR3-PK2 construct is readily able to detect the differences in the propensity of CXCL11 and CXCL10 to induce β-arrestin 2 recruitment at CXCR3. […] Table 3. Ability of the 46/VUF10661 based positive allosteric modulators to activate the CXCR3 as measured in the β-arrestin 2 recruitment assay (PathHunter, DiscoveRx).[a]
To investigate the efficacy of identified partial agonists in the assay format, the inventors used the CXCR3-PK2 construct, which is characterized by higher sensitivity to detect β-arrestin 2 recruitment. The compounds which appeared as weak partial agonists under CXCR3-PK1 conditions appeared as strong partial agonists under CXCR3-PK2 conditions with the efficacy increased up to 80% (Table 4). FAUC1036 reached the efficacy of 66%. […] Table 4. Ability of the compound 5 based positive allosteric modulators to activate the CXCR3 as measured in the β-arrestin 2 recruitment assay (PathHunter, DiscoveRx).[a]

[3] = biological target: T2, CXCR3 (Homo sapiens, UniProt P49682); test: [35S]GTPγS incorporation assay; assay type: biochemical; conditions: for Emax / CXCR3 Efficacy (%) ± SEM: % of CXCL11 mediated effect; for Emax: read-out: CXCR3 Efficacy (%) ± SEM; for CXCR3 pEC50 ± SEM: mean of three experiments in triplicate
T2 construct: expressed in transfected cells; host or cells: HEK293 / HEK293T cells, stably transfected; membrane preparations
T2 sequence (P49682 1-368): T1 sequence (P49682 1-368)
Procedure: Membrane preparation for allosteric radioligand RAMX3 displacement and [^35S]GTPγS incorporation assays: The human embryonic kidney (HEK) cells stably expressing the human CXCR3 receptor were cultured in 150-mm cell culture plates in DMEM/F-12 supplemented with 10% fetal bovine serum (FBS), 2 mM L-glutamine, 1% penicillin-streptomycin, 300 µgmL^-1 Zeocin and incubated at 37 °C in a humid atmosphere with 5% CO2. At 100% confluency cells were washed with PBS twice, treated with Tris EDTA buffer (10 mM Tris, 0.5 mM EDTA, 5 mM KCl, 140 mM NaCl, pH 7.4), and harvested using a cell scraper. Cells were pelleted at 1100×g for 8 min at 4 °C, resuspended in Tris-EDTA-MgCl2 buffer (50mM Tris, 5 mM EDTA, 1.5 mM CaCl2, 5 mM MgCl2, 5 mM KCl, 120 mM NaCl, pH 7.4) and followed by lysis with an Ultra-Turrax. After centrifugation at 50,000•g, at 4°C for 18 min the membranes were resuspended in the binding buffer (50 mM Tris, 1 mM EDTA, 5 mM MgCl2 and subsequently homogenized with a glass-Teflon homogenizer (20 strokes). The homogenized membranes were shock-frozen in liquid nitrogen and stored at -80°C. The protein concentration was determined with the Lowry method with bovine serum albumin used as a standard.^35
[^35S]GTPγS incorporation assay: The [^35S]GTPγS incorporation assay was performed on membrane preparations of stably transfected HEK293 cells that expressed the CXCR3 receptor. The assay was carried out in 96-well plates at the final volume of 200 µL. The incubation buffer contained 20 mM HEPES, 10 mM MgCl2•6H20,100 mM NaCl and 100 mg/L saponin (pH 7.4). Membranes (30 µgmL^-1 of membrane protein), various concentrations of test compound and CXCL11, and 1 µM GDP were preincubated in the absence of [^35S]GTPγS for 30 min at 37 °C. After the addition of 0.10 nM [^35S]GTPγS membranes were incubated for additional 30 min at 37 °C. Incubation was terminated by filtration through Whatman GF/B filters soaked with ice cold PBS. The filter-bound radioactivity was measured as described above. Three to four experiments per compound were performed with each concentration in triplicate.
The activation of G proteins was explored in terms of CXCR3 mediated [^35S]GTPγS incorporation. In the [^35S]GTPγS incorporation assay the membrane preparations of HEK293T cells stably expressing CXCR3 were used. The activation of G proteins was monitored as the incorporation of [^35S]GTPγS and thus increase in the incorporated radioactivity. The potency and efficacy of the novel compounds was first compared to the reference compound 46/VUF10661. […] Table 1. The ability of the 46/VUF10661 based positive allosteric modulators to activate CXCR3 as measured in the [35S]GTPγS incorporation assay.[a]

[4] = biological target: T3, CXCR3-PK1 (Homo sapiens, UniProt P49682); test: β-arrestin 2 recruitment assay (PathHunter, DiscoveRx), CXCR3-PK1 construct; assay type: cell-based; conditions: CXCR3-PK1; for Emax: read-out: CXCR3-PK1 efficacy (%) (converted); for CXCR3-PK1 pEC50 ± SEM: HEK293-T cells, PathHunter, two to three experiments in triplicate
T3 construct: expressed in transfected cells; host or cells: HEK293 cells stably expressing beta-gal enzyme acceptor (PathHunter, DiscoveRx), transiently transfected
T3 sequence (P49682 1-368): T1 sequence (P49682 1-368)
Procedure: as §1, §2

[5] = membrane preparations of HEK293T stably expressing CXCR3

SMILES	Emax [2]	CXCR3-PK2 pEC50 ± SEM [2]	Emax [3, 5]	CXCR3 pEC50 ± SEM [3, 5]	Emax ([4]; % of CXCL11 mediated effect)	CXCR3-PK1 pEC50 ± SEM [4]	CXCR3 Efficacy (%) ± SEM [3, 5]	EC50 ([3]; membrane preparations of HEK293T stably expressing CXCR3, read-out: EC50 / potency in [35S]GTPγS incorporation)	CXCR3-PK1 efficacy (%) ([4]; % of CXCL11 mediated effect)	influence on CXCL11 induced migration in activated T-cells [1]	CXCR3 mediated G protein activation (result in words) ([3]; [35S]GTPγS incorporation)
NC(N)=NCCC[C@H](NC(=O)[C@@H]1Cc2ccccc2CN1C(=O)CCC(=O)c1ccccc1)C(=O)NCC1CCCCC1 [PS372424]										found to antagonize CXCL11 induced migration	
N[C@H](CCCCNC(=O)[C@@H]1Cc2ccccc2CN1C(=O)CCC(=O)c1ccccc1)C(=O)NCC(c1ccccc1)c1ccccc1.O=C(O)C(F)(F)F [Compound 35, (R)-1-((2,2-diphenylethyl)amino)-1-oxo-6-((S)-2-(4-oxo-4-phenylbutanoyl)-1,2,3,4-tetrahydroisoquinoline-3-carboxamido)hexan-2-aminium 2,2,2-trifluoroacetate]	79%	6.52±0.43	25 ± 4%	8.01±0.31	28%	7.16±0.33					
CC(C)(C)OC(=O)N[C@@H](CCCCNC(=O)[C@@H]1Cc2ccccc2CN1)C(=O)NCC(c1ccccc1)c1ccccc1 [Compound 5, Tert-butyl ((S)-1-((2,2-diphenylethyl)amino)-1-oxo-6-((S)-1,2,3,4-tetrahydroisoquinoline-3-carboxamido)hexan-2-yl)carbamate]	79%	6.71±0.33	34%	5.7 ± 0.34 and 5.66±0.34	31%	6.50±0.17	34±8%	2200 nM	31±2%		
CC(C)(C)OC(=O)N[C@@H](CCCCNC(=O)[C@@H]1Cc2ccccc2CN1C(=O)CCc1ccccc1)C(=O)NCC(c1ccccc1)c1ccccc1 [Compound 23, Tert-butyl((S)-1-((2,2-diphenylethyl)amino)-1-oxo-6-((S)-2-(3-phenylpropanoyl)-1,2,3,4-tetrahydroisoquinoline-3-carboxamido)hexan-2-yl)carbamate]	29%	6.71±0.30	30 ± 17%	5.07±0.50	19%	7.21±0.17					
N[C@@H](CCCCNC(=O)[C@@H]1Cc2ccccc2CN1C(=O)CCCC(=O)c1ccccc1)C(=O)NCC(c1ccccc1)c1ccccc1.O=C(O)C(F)(F)F [Compound 26, (S)-1-((2,2-diphenylethyl)amino)-1-oxo-6-((S)-2-(5-oxo-5-phenylpentanoyl)-1,2,3,4-tetrahydroisoquinoline-3-carboxamido)hexan-2-aminium 2,2,2-trifluoroacetate]	91%	6.90±0.21		No effect	20%	6.73±0.22	No effect				

Second part, led by results:

Emax [2]	CXCR3-PK2 pEC50 ± SEM [2]	Emax [3, 5]	CXCR3 pEC50 ± SEM [3, 5]	Emax ([4]; % of CXCL11 mediated effect)	CXCR3-PK1 pEC50 ± SEM [4]	CXCR3 Efficacy (%) ± SEM [3, 5]	EC50 ([3]; membrane preparations of HEK293T stably expressing CXCR3, read-out: EC50 / potency in [35S]GTPγS incorporation)	CXCR3-PK1 efficacy (%) ([4]; % of CXCL11 mediated effect)	SMILES	influence on CXCL11 induced migration in activated T-cells [1]	CXCR3 mediated G protein activation (result in words) ([3]; [35S]GTPγS incorporation)
198%	6.12±0.11	85 ± 5%	5.94±0.09	108%	5.96±0.08				NCCCC[C@@H](NC(=O)[C@@H]1Cc2ccccc2CN1C(=O)CCC(=O)c1ccccc1)C(=O)NCC(c1ccccc1)c1ccccc1.O=C(O)C(F)(F)F [Compound 47, (R)-6-((2,2-diphenylethyl)amino)-6-oxo-5-((S)-2-(4-oxo-4-phenylbutanoyl)-1,2,3,4-tetrahydroisoquinoline-3-carboxamido)hexan-1-aminium 2,2,2-trifluoroacetate]		
27%	6.51±0.34		No effect	17%	6.80±0.21	No effect			N[C@@H](CCCCNC(=O)[C@@H]1Cc2ccccc2CN1C(=O)CCC(=O)c1ccccc1)C(=O)NCC(c1ccccc1)c1ccccc1.O=C(O)C(F)(F)F [Compound 25, (S)-1-((2,2-diphenylethyl)amino)-1-oxo-6-((S)-2-(4-oxo-4-phenylbutanoyl)-1,2,3,4-tetrahydroisoquinoline-3-carboxamido)hexan-2-aminium 2,2,2-trifluoroacetate]		failed to induce CXCR3 mediated G protein activation
